Assays:
[1] = molecular target: TIE2 (Homo sapiens (Human), UniProt Q02763); experiment: KINOMEscan kinase selectivity profiling; type: binding; conditions: read-out: Ambit KINOMEscan of compound I-5 at 10 μM (percent control %)
[2] = molecular target: JAK2 (Homo sapiens (Human), UniProt O60674); experiment: JAK2 Z-Lyte biochemical assay; conditions: commercial JAK2 Z-Lyte assay from Invitrogen
Protocol: The JAK2 Z-Lyte biochemical assay was performed according to manufacturer's instructions (Life Technologies).

[3] = molecular target: EPHB2 (Homo sapiens (Human), UniProt P29323); experiment: KINOMEscan kinase selectivity profiling; type: binding; conditions: read-out: Ambit KINOMEscan of compound I-5 at 10 μM (percent control %)
[4] = molecular target: p38-delta (Homo sapiens (Human), UniProt O15264); experiment: KINOMEscan kinase selectivity profiling; type: binding; conditions: read-out: Ambit KINOMEscan of compound I-5 at 10 μM (percent control %)
[5] = molecular target: CIT (Homo sapiens (Human), UniProt O14578); experiment: KINOMEscan kinase selectivity profiling; type: binding; conditions: read-out: Ambit KINOMEscan of compound I-5 at 10 μM (percent control %)
[6] = molecular target: FES (Homo sapiens (Human), UniProt P07332); experiment: KINOMEscan kinase selectivity profiling; type: binding; conditions: read-out: Ambit KINOMEscan of compound I-5 at 10 μM (percent control %)
[7] = molecular target: BRAF(V600E) (Homo sapiens (Human), UniProt P15056, V600E); experiment: KINOMEscan kinase selectivity profiling; type: binding; conditions: read-out: Ambit KINOMEscan of compound I-5 at 10 μM (percent control %)
[8] = molecular target: TRKB (Homo sapiens (Human), UniProt Q16620); experiment: KINOMEscan kinase selectivity profiling; type: binding; conditions: read-out: Ambit KINOMEscan of compound I-5 at 10 μM (percent control %)
[9] = molecular target: PFTAIRE2 (Homo sapiens (Human), UniProt Q96Q40); experiment: KINOMEscan kinase selectivity profiling; type: binding; conditions: read-out: Ambit KINOMEscan of compound I-5 at 10 μM (percent control %)
[10] = molecular target: RET(M918T) (Homo sapiens (Human), UniProt P07949, M918T); experiment: KINOMEscan kinase selectivity profiling; type: binding; conditions: read-out: Ambit KINOMEscan of compound I-5 at 10 μM (percent control %)
[11] = molecular target: RET(V804M) (Homo sapiens (Human), UniProt P07949, V804M); experiment: KINOMEscan kinase selectivity profiling; type: binding; conditions: read-out: Ambit KINOMEscan of compound I-5 at 10 μM (percent control %)
[12] = molecular target: MAP4K2 (Homo sapiens (Human), UniProt Q12851); experiment: KINOMEscan kinase selectivity profiling; type: binding; conditions: read-out: Ambit KINOMEscan of compound I-5 at 10 μM (percent control %)
[13] = molecular target: HPK1 (Homo sapiens (Human), UniProt Q92918); experiment: KINOMEscan kinase selectivity profiling; type: binding; conditions: read-out: Ambit KINOMEscan of compound I-5 at 10 μM (percent control %)
[14] = molecular target: FLT4 (Homo sapiens (Human), UniProt P35916); experiment: KINOMEscan kinase selectivity profiling; type: binding; conditions: read-out: Ambit KINOMEscan of compound I-5 at 10 μM (percent control %)
[15] = molecular target: SRC (Homo sapiens (Human), UniProt P12931); experiment: KINOMEscan kinase selectivity profiling; type: binding; conditions: read-out: Ambit KINOMEscan of compound I-5 at 10 μM (percent control %)
[16] = molecular target: KIT (Homo sapiens (Human), UniProt P10721); experiment: KINOMEscan kinase selectivity profiling; type: binding; conditions: read-out: Ambit KINOMEscan of compound I-5 at 10 μM (percent control %)
[17] = molecular target: ABL1(Q252H) (Homo sapiens (Human), UniProt P00519, Q252H); experiment: KINOMEscan kinase selectivity profiling; type: binding; conditions: read-out: Ambit KINOMEscan of compound I-5 at 10 μM (percent control %)
[18] = molecular target: MERTK (Homo sapiens (Human), UniProt Q12866); experiment: KINOMEscan kinase selectivity profiling; type: binding; conditions: read-out: Ambit KINOMEscan of compound I-5 at 10 μM (percent control %)
[19] = molecular target: ABL2 (Homo sapiens (Human), UniProt P42684); experiment: KINOMEscan kinase selectivity profiling; type: binding; conditions: read-out: Ambit KINOMEscan of compound I-5 at 10 μM (percent control %)
[20] = molecular target: PFTK1 (Homo sapiens (Human), UniProt O94921); experiment: KINOMEscan kinase selectivity profiling; type: binding; conditions: read-out: Ambit KINOMEscan of compound I-5 at 10 μM (percent control %)
[21] = molecular target: ABL1(T315I) (Homo sapiens (Human), UniProt P00519, T315I); experiment: KINOMEscan kinase selectivity profiling; type: binding; conditions: read-out: Ambit KINOMEscan of compound I-5 at 10 μM (percent control %)
[22] = molecular target: RET(V804L) (Homo sapiens (Human), UniProt P07949, V804L); experiment: KINOMEscan kinase selectivity profiling; type: binding; conditions: read-out: Ambit KINOMEscan of compound I-5 at 10 μM (percent control %)
[23] = molecular target: CDC2L2 (Homo sapiens (Human), UniProt Q9UQ88); experiment: KINOMEscan kinase selectivity profiling; type: binding; conditions: read-out: Ambit KINOMEscan of compound I-5 at 10 μM (percent control %)
[24] = molecular target: CDKL3 (Homo sapiens (Human), UniProt Q8IVW4); experiment: KINOMEscan kinase selectivity profiling; type: binding; conditions: read-out: Ambit KINOMEscan of compound I-5 at 10 μM (percent control %)
[25] = molecular target: TRKC (Homo sapiens (Human), UniProt Q16288); experiment: KINOMEscan kinase selectivity profiling; type: binding; conditions: read-out: Ambit KINOMEscan of compound I-5 at 10 μM (percent control %)
[26] = molecular target: TAK1 (Homo sapiens (Human), UniProt O43318); experiment: KINOMEscan kinase selectivity profiling; type: binding; conditions: read-out: Ambit KINOMEscan of compound I-5 at 10 μM (percent control %)
[27] = molecular target: INSRR (Homo sapiens (Human), UniProt P14616); experiment: KINOMEscan kinase selectivity profiling; type: binding; conditions: read-out: Ambit KINOMEscan of compound I-5 at 10 μM (percent control %)
[28] = molecular target: PDGFRA (Homo sapiens (Human), UniProt P16234); experiment: KINOMEscan kinase selectivity profiling; type: binding; conditions: read-out: Ambit KINOMEscan of compound I-5 at 10 μM (percent control %)
[29] = molecular target: PDGFRB (Homo sapiens (Human), UniProt P09619); experiment: KINOMEscan kinase selectivity profiling; type: binding; conditions: read-out: Ambit KINOMEscan of compound I-5 at 10 μM (percent control %)
[30] = molecular target: ITK (Homo sapiens (Human), UniProt Q08881); experiment: KINOMEscan kinase selectivity profiling; type: binding; conditions: read-out: Ambit KINOMEscan of compound I-5 at 10 μM (percent control %)
[31] = molecular target: EPHA8 (Homo sapiens (Human), UniProt P29322); experiment: KINOMEscan kinase selectivity profiling; type: binding; conditions: read-out: Ambit KINOMEscan of compound I-5 at 10 μM (percent control %)
[32] = molecular target: RAF1 (Homo sapiens (Human), UniProt P04049); experiment: KINOMEscan kinase selectivity profiling; type: binding; conditions: read-out: Ambit KINOMEscan of compound I-5 at 10 μM (percent control %)
[33] = molecular target: TAOK3 (Homo sapiens (Human), UniProt Q9H2K8); experiment: KINOMEscan kinase selectivity profiling; type: binding; conditions: read-out: Ambit KINOMEscan of compound I-5 at 10 μM (percent control %)
[34] = molecular target: EPHA4 (Homo sapiens (Human), UniProt P54764); experiment: KINOMEscan kinase selectivity profiling; type: binding; conditions: read-out: Ambit KINOMEscan of compound I-5 at 10 μM (percent control %)
[35] = molecular target: KIT(L576P) (Homo sapiens (Human), UniProt P10721, L576P); experiment: KINOMEscan kinase selectivity profiling; type: binding; conditions: read-out: Ambit KINOMEscan of compound I-5 at 10 μM (percent control %)
[36] = molecular target: EPHA6 (Homo sapiens (Human), UniProt Q9UF33); experiment: KINOMEscan kinase selectivity profiling; type: binding; conditions: read-out: Ambit KINOMEscan of compound I-5 at 10 μM (percent control %)
[37] = molecular target: RIPK1 (Homo sapiens (Human), UniProt Q13546); experiment: KINOMEscan kinase selectivity profiling; type: binding; conditions: read-out: Ambit KINOMEscan of compound I-5 at 10 μM (percent control %)
[38] = molecular target: CSF1R (Homo sapiens (Human), UniProt P07333); experiment: KINOMEscan kinase selectivity profiling; type: binding; conditions: read-out: Ambit KINOMEscan of compound I-5 at 10 μM (percent control %)
[39] = molecular target: LYN (Homo sapiens (Human), UniProt P07948); experiment: KINOMEscan kinase selectivity profiling; type: binding; conditions: read-out: Ambit KINOMEscan of compound I-5 at 10 μM (percent control %)
[40] = molecular target: KIT(V559D) (Homo sapiens (Human), UniProt P10721, V559D); experiment: KINOMEscan kinase selectivity profiling; type: binding; conditions: read-out: Ambit KINOMEscan of compound I-5 at 10 μM (percent control %)
[41] = molecular target: TIE1 (Homo sapiens (Human), UniProt P35590); experiment: KINOMEscan kinase selectivity profiling; type: binding; conditions: read-out: Ambit KINOMEscan of compound I-5 at 10 μM (percent control %)
[42] = molecular target: FGR (Homo sapiens (Human), UniProt P09769); experiment: KINOMEscan kinase selectivity profiling; type: binding; conditions: read-out: Ambit KINOMEscan of compound I-5 at 10 μM (percent control %)
[43] = molecular target: EPHB1 (Homo sapiens (Human), UniProt P54762); experiment: KINOMEscan kinase selectivity profiling; type: binding; conditions: read-out: Ambit KINOMEscan of compound I-5 at 10 μM (percent control %)
[44] = molecular target: EPHB4 (Homo sapiens (Human), UniProt P54760); experiment: KINOMEscan kinase selectivity profiling; type: binding; conditions: read-out: Ambit KINOMEscan of compound I-5 at 10 μM (percent control %)
[45] = molecular target: RET (Homo sapiens (Human), UniProt P07949); experiment: KINOMEscan kinase selectivity profiling; type: binding; conditions: read-out: Ambit KINOMEscan of compound I-5 at 10 μM (percent control %)

Chain of CSF1R (P07333 20-972): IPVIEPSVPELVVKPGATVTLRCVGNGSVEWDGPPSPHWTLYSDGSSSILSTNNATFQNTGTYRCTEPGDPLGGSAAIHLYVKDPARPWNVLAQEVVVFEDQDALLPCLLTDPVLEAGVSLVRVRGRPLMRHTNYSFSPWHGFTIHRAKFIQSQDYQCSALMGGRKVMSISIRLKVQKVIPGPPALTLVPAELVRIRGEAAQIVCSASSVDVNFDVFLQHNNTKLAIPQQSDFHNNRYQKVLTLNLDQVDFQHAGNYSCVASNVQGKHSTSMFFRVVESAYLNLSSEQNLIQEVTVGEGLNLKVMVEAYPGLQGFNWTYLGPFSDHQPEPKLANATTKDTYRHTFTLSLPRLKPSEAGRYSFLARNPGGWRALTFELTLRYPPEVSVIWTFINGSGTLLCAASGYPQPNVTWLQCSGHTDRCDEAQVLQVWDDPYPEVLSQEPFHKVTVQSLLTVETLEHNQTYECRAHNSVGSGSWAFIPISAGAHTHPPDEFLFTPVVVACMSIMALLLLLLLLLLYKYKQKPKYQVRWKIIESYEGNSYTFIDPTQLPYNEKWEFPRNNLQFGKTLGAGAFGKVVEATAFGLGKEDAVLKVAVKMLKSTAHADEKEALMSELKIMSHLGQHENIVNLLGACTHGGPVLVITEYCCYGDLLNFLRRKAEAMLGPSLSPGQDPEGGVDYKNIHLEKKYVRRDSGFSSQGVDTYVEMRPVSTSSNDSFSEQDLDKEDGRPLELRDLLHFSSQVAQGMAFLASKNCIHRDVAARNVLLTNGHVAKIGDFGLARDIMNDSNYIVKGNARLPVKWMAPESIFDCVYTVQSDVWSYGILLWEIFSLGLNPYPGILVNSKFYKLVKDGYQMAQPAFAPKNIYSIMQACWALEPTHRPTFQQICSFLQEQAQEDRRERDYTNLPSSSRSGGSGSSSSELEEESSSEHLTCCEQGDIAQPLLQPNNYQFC
Chain of FLT4 (P35916 25-1363): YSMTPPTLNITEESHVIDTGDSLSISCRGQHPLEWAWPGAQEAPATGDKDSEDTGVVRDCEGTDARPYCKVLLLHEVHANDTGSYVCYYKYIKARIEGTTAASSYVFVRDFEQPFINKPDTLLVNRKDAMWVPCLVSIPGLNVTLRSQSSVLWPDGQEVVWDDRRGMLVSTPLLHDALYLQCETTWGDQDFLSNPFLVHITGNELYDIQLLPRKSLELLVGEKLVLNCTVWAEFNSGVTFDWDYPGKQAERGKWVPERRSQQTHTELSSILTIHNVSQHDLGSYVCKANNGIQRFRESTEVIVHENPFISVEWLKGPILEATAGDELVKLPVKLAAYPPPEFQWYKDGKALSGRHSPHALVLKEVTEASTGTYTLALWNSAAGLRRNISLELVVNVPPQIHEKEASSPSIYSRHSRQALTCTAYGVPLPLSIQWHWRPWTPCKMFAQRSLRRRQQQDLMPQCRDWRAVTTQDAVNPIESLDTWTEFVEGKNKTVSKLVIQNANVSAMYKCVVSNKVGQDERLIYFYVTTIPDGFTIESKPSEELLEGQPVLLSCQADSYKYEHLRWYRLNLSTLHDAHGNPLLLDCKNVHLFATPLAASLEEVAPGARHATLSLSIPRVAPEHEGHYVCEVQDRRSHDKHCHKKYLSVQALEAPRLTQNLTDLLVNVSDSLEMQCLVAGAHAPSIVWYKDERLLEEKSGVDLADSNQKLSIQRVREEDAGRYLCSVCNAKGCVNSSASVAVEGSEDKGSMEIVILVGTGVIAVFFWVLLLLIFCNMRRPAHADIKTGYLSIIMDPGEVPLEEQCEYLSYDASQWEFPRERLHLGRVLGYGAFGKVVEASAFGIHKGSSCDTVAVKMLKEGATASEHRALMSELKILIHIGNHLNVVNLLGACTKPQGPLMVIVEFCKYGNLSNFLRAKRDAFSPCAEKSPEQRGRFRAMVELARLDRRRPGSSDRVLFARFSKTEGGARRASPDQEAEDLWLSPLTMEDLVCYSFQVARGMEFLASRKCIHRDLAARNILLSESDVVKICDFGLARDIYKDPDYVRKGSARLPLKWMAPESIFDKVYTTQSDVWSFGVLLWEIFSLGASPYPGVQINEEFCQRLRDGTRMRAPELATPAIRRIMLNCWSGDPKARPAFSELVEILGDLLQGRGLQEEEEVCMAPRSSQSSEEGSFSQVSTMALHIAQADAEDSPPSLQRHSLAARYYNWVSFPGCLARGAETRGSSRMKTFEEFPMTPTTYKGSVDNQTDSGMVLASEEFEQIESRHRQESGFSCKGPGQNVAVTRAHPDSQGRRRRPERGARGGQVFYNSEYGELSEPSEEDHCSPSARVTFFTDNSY
Chain of PDGFRA (P16234 24-1089): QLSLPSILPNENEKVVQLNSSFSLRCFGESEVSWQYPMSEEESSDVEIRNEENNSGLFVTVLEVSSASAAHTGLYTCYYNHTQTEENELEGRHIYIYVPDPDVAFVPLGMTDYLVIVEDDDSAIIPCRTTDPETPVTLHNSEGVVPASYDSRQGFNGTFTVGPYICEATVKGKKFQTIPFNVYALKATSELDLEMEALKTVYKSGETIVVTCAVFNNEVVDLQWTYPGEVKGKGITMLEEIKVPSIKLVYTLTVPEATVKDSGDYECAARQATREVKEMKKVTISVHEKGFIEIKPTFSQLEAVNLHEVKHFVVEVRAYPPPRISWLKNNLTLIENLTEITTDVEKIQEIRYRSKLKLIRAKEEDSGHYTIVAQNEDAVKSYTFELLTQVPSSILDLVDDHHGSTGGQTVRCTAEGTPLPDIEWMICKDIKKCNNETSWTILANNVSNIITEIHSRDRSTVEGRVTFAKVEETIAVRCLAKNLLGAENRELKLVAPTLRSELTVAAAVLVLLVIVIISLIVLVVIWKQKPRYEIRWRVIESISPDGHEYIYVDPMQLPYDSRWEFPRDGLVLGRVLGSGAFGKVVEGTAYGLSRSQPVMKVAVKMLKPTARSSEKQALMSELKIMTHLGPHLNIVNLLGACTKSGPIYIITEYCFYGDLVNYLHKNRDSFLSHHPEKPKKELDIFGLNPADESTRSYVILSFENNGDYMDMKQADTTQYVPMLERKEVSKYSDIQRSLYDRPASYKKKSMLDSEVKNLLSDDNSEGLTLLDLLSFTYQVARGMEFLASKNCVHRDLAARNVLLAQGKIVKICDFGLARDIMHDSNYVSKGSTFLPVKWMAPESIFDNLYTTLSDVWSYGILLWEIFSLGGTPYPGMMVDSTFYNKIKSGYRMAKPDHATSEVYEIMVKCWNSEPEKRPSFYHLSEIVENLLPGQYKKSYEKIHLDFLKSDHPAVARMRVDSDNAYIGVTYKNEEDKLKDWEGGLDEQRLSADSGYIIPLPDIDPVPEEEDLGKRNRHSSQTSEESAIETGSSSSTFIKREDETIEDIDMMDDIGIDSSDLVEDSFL
Chain of p38-delta (O15264 whole entry): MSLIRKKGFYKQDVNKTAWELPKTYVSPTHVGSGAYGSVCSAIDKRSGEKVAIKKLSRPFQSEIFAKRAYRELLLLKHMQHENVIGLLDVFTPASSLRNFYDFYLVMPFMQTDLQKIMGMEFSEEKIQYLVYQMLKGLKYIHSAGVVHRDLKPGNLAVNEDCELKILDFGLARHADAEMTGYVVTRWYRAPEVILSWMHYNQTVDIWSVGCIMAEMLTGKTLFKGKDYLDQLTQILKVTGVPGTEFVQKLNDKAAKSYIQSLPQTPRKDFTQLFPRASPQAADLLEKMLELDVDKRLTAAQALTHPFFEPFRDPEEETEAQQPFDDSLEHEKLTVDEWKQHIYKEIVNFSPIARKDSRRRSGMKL
Chain of ABL2 (P42684 whole entry): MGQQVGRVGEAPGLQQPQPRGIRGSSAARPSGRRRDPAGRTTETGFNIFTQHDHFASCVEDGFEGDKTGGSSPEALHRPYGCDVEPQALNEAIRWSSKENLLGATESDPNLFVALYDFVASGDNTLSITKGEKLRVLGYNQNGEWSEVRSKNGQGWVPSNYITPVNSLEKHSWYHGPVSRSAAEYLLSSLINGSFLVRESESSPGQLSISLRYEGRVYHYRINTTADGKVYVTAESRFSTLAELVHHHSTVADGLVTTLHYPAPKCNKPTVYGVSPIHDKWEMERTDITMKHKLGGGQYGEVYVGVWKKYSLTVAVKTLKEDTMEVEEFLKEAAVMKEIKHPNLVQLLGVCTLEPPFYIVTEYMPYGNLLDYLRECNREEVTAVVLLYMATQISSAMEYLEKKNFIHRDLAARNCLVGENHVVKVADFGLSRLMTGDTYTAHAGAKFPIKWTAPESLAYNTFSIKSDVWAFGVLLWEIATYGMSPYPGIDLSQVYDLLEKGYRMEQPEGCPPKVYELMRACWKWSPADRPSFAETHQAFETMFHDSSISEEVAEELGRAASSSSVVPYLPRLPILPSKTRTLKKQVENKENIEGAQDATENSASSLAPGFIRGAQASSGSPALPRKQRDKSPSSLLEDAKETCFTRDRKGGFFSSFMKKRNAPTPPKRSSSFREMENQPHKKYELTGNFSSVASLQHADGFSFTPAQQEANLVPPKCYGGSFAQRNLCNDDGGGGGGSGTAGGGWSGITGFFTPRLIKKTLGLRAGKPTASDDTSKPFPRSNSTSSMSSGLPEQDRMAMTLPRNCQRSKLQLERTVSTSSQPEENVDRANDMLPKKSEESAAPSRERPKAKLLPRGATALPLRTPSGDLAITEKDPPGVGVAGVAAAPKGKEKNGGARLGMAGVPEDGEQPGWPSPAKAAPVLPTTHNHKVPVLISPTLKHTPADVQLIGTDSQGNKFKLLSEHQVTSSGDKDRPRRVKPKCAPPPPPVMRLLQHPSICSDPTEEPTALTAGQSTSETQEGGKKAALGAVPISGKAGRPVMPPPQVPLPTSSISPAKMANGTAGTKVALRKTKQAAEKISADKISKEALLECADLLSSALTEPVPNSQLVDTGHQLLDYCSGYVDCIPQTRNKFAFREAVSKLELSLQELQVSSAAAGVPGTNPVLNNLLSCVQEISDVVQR

remaining binding at 10 µM [1]: 0% | IC50 [2]: 660 nM | remaining binding at 10 µM [3]: 0% | remaining binding at 10 µM [4]: 0% | remaining binding at 10 µM [5]: 0% | remaining binding at 10 µM [6]: 0% | remaining binding at 10 µM [7]: 0% | remaining binding at 10 µM [8]: 0% | remaining binding at 10 µM [9]: 0% | remaining binding at 10 µM [10]: 0% | remaining binding at 10 µM [11]: 0% | remaining binding at 10 µM [12]: 0% | remaining binding at 10 µM [13]: 0% | remaining binding at 10 µM [14]: 0% | remaining binding at 10 µM [15]: 0% | remaining binding at 10 µM [16]: 0% | remaining binding at 10 µM [17]: 0% | remaining binding at 10 µM [18]: 0% | remaining binding at 10 µM [19]: 0% | remaining binding at 10 µM [20]: 0% | remaining binding at 10 µM [21]: 0% | remaining binding at 10 µM [22]: 0% | remaining binding at 10 µM [23]: 0% | remaining binding at 10 µM [24]: 0% | remaining binding at 10 µM [25]: 0% | remaining binding at 10 µM [26]: 0% | remaining binding at 10 µM [27]: 0% | remaining binding at 10 µM [28]: 0% | remaining binding at 10 µM [29]: 0% | remaining binding at 10 µM [30]: 0% | remaining binding at 10 µM [31]: 0% | remaining binding at 10 µM [32]: 0% | remaining binding at 10 µM [33]: 0% | remaining binding at 10 µM [34]: 0% | remaining binding at 10 µM [35]: 0% | remaining binding at 10 µM [36]: 0% | remaining binding at 10 µM [37]: 0% | remaining binding at 10 µM [38]: 0% | remaining binding at 10 µM [39]: 0% | remaining binding at 10 µM [40]: 0% | remaining binding at 10 µM [41]: 0% | remaining binding at 10 µM [42]: 0% | remaining binding at 10 µM [43]: 0% | remaining binding at 10 µM [44]: 0% | remaining binding at 10 µM [45]: 0%
SMILES: CCN1CCN(Cc2cc(NC(=O)c3ccc(C)c(-c4ccc5nc(NC(=O)C6CC6)sc5n4)c3)cc(C(F)(F)F)c2)CC1 [Compound I-5]

Reference: patent publication US12415816B2, “Benzothiazole derivatives and 7-aza-benzothiazole derivatives as janus kinase 2 inhibitors and uses thereof” (Dana-Farber Cancer Institute, Inc., priority 2018, dated 2025)
